Assay results taken from patent US8029764B2, “Methods for detection of colorectal cancer” (The Johns Hopkins University, priority 2001, dated 2011).

Test system: colorectal tissue transcripts
Test: SAGE of normal, adenoma and cancer colorectal tissue (transcript tag counts)
Design: species or system human
Settings: for AD1 (SAGE tag count): adenoma library 1; for AD2 (SAGE tag count): adenoma library 2; for CA1 (SAGE tag count): cancer library 1; for CA2 (SAGE tag count): cancer library 2; for NC1 (SAGE tag count): normal colorectal tissue library 1; for NC2 (SAGE tag count): normal colorectal tissue library 2
Method in brief: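 SAGE libraries from two normal colonic epithelium samples, two colorectal adenomas (FAP patients, >70% neoplastic cells) and two colorectal cancers. Transcripts counted as 15-base 3′ tags from oligo(dT)-selected mRNA; repeated ditags, linkers and MHC-locus tags excluded before statistical library comparison.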

Sequence	AD1 (SAGE tag count)	AD2 (SAGE tag count)	CA1 (SAGE tag count)	CA2 (SAGE tag count)	NC1 (SAGE tag count)	NC2 (SAGE tag count)
TCAGCTGCAA (chemistry not fully specified)	0	0	9	3	56	16
TCGGAGCTGT (chemistry not fully specified)	9	6	3	0	21	20
TCTGAATTAT (chemistry not fully specified)	0	0	1	0	24	16
TGACTAATTG (chemistry not fully specified)	2	0	0	3	7	9
TGAGTGACAG (chemistry not fully specified)	0	6	3	7	9	68
TGATCTCTGT (chemistry not fully specified)	1	0	1	1	6	7
TGCAGCACGA (chemistry not fully specified)	5	30	24	16	6	185
TGCAGCGCCT (chemistry not fully specified; the letters are possibly those of the target site)	1	1	1	1	16	9
TGCCGCCCGC (chemistry not fully specified)	2	2	1	0	14	5
TGCTCCTACC (chemistry not fully specified; the letters are possibly those of the target site)	70	22	17	22	140	113
TGGCCATCTG (chemistry not fully specified)	8	7	3	4	30	24
TGGCGCGTGT (chemistry not fully specified)	0	0	9	5	25	8
TGGCTACTTA (chemistry not fully specified)	1	0	1	2	6	9
TGGGGAGAGG (chemistry not fully specified)	20	7	3	7	43	18
TTAACCCCTC (chemistry not fully specified)	5	9	1	5	34	14
TTATGGTGTG (chemistry not fully specified)	0	0	0	0	11	17
TTCCACTAAC (chemistry not fully specified)	7	4	5	5	29	9
TTCCGCGTTC (chemistry not fully specified)	0	0	2	2	5	16
TTCTGGTGCG (chemistry not fully specified)	0	0	1	0	8	2
TTCTGTAGCC (chemistry not fully specified)	4	2	4	2	13	23
TTGGACCTGG (chemistry not fully specified)	7	18	12	16	33	31
TTGGGGTTTC (chemistry not fully specified)	50	81	67	50	111	184
TTTAACGGCC (chemistry not fully specified)	36	35	11	30	93	67
TTTCCTCTCA (chemistry not fully specified)	6	2	4	3	21	8
TTTCTCGTCG (chemistry not fully specified)	2	3	0	2	10	16
TTTGGTTTCA (chemistry not fully specified)	0	0	0	0	2	13
TTTTCTGCAT (chemistry not fully specified)	1	0	1	2	8	7
TTTTTACTGA (chemistry not fully specified)	10	10	8	1	32	19
